The source of these data is ChEMBL document CHEMBL1146151, “Polyoxometalates--a new class of potent ecto-nucleoside triphosphate diphosphohydrolase (NTPDase) inhibitors” (Bioorg Med Chem Lett, 2006).

For this assay, the target named is T1, Ectonucleoside triphosphate diphosphohydrolase 2 (Rattus norvegicus) (UniProt O35795).
T1 sequence (whole entry): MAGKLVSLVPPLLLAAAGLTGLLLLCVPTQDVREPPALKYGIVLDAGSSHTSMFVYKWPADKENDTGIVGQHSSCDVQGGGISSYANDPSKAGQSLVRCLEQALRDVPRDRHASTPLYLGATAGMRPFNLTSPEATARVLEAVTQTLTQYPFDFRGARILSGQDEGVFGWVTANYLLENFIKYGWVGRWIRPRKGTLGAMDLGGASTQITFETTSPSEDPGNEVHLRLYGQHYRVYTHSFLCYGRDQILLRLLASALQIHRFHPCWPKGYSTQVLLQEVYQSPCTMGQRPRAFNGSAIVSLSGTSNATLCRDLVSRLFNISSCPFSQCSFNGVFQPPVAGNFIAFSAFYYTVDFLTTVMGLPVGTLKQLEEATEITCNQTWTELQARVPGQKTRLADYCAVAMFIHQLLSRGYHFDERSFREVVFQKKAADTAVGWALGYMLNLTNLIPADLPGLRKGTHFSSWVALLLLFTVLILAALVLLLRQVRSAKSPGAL
Particulars: CHO, 1 mM.

The structures appear in SMILES notation.

Description: Inhibition of rat recombinant NTPDase2 expressed in CHO cells at 1 mM

Usually inhibition stands for how much of the control response was suppressed. In the case of `CCN(CC)c1ncnc2c1ncn2[C@@H]1O[C@H](COP(=O)(O)OP(=O)(O)C(Br)(Br)P(=O)(O)O)[C@@H](O)[C@H]1O`, the inhibition is 50%.
